Assay results reported in US11376298B2, “Composition comprising natural substances having healing, repellent and biocidal properties for the treatment and the cure of external wounds” (priority 2004, dated 2022).

Assays:
[1] = EPA (USA) and EEA (UE); cited from earlier work
cheloid = assay: Cheloid therapy on wounds in the distal part of horse's limb; format: in vivo, horses; conditions: composition versus Salicylic acid therapy
Source text: Cheloid is a disturbance of the granulation tissue due to a hyperproliferation of the fibroblasts. These cells stop the mitogenic activity when enough extracellular matrix fills the wound crater. Collagen fibrils of the matrix start to retract anchoring the wounds edges to fibroblasts. When the collagen fibrils start to retract, fibroblasts stop to secrete the matrix (antimitogenic effect). Most of them undergo apoptosis (cell death without inducing an inflammatory reaction) and quiescence (sleeping fibroblasts), while only a small part undergo the transformation into myofibroblasts (which play a role in the last phases of the wound healing). Newly formed capillary vessels are absorbed and disappear in synchrony with the fibroblasts. Keratinocytes on the top of the healed area start to re-epithelialize the area and the process is complete: In horse, researchers have identified two orders of problems responsible for the high incidence of cheloid pathology: 1) exaggerated tension stimuli at the levels of the distal part of the horses legs, due too scarcity of muscle mass and hypodermal fat and 2) slow capacity of the keratinocytes to obtain the re-epithelialization of the granulated area maybe due to a scarcity of the signals responsible for the antimitogenic effects on fibroblasts. […]

Row | SMILES | class of toxicity [1] | time of healing / effectiveness in comparison of therapies (cheloid)
1 | C/C=C(\C)C(=O)O[C@H]1C[C@@H](OC(C)=O)[C@@]2(C(=O)OC)CO[C@H]3[C@@H](O)[C@@](C)([C@]45O[C@@]4(C)[C@@H]4C[C@H]5O[C@@H]5OC=C[C@@]54O)[C@H]4[C@]1(CO[C@]4(O)C(=O)OC)[C@@H]32 [Azadirachtin A] | IVth | –
2 | O=C(O)c1ccccc1O [Salicylic acid, salicylic acid] | – | not as effective as the therapy with the present composition
